For the test, the system named is KKA^y mice. Put plainly: Chronic 4-week treatment of diabetic KKA^y mice in drinking water. Type of test: in vivo, mouse. The method, then:
Mice were fasted for 16 h. A glucose solution was administered by intragastric gavage at a dose of 1 g/kg body weight. The blood glucose concentration was measured at 0, 30, 60, 90, 120 min after glucose administration in the blood collected from the tip of the tail vein, using an Accu-Chek glucose meter (Roche, Montreal, QC, Canada).
At the end of the experiment, blood samples were collected from renal artery during exsanguinations carried out under anesthesia using heparinized tools. The samples were centrifuged at 3000 g for 10 min at 4° C. The plasma samples were used for the analyses of biochemical parameters. Plasma adiponectin, insulin and leptin were measured using radioimmuno assay (RIA) kits (Millipore, Montreal, QC, Canada).
In preliminary experiments, three different doses of BJ, namely 20, 40, 80 ml/kg/day, were incorporated in the drinking water and provided to mice for one week. […] Therefore, this dose was used for the chronic treatment studies described here.
Forty-two 7 week-old KKA^y mice were randomly divided into 6 groups (n=7) which received either water, normal blueberry juice (NJ) (80 ml/kg/day), biotransformed blueberry juice (BJ) (80 ml/kg/day; prepared as described in Example 8), or Metformin (0.85 g/kg/day) (Meglasson M D et al., supra) in drinking water. […] The sixth and final group received SW but had unrestricted access to solid food. Baseline measurements of fed blood glucose levels, body weight, food intake and water consumption were taken daily at 11.00 a.m. At the onset of experiments and after 4 weeks, an oral glucose tolerance test (OGTT) was performed, as described in Example 8.

Where [1] appears, read: NJ, BJ 80 ml/kg/day, MET 0.85 g/kg/day, 4 weeks.

Marks after values point to notes of the source that are not given here. Some results are limits rather than exact numbers.

Take `CN(C)C(=N)N=C(N)N` [MET, Metformin]: the “Rise of circulating adiponectin above values of control animals” value (4 weeks) was “neither NJ nor Metformin treatments could modify the low level of adiponectin”. For the same compound, the “Reduction of circulating insulin levels vs controls” value (4 weeks, BJ effect not statistically significant) was “normalized”. Besides, where the note is “4 weeks, glucose 1 g/kg by gavage”, the “Drop of OGTT AUC between the onset and the end of treatment” value is given as 38%. In addition, under setting [1], the “Adiponectin (plasma)” value is given as 5.9 ± 0.6^a μg/ml, the “Insulin (plasma)” value is listed as 1.7 ± 0.5^b ng/ml, the “Leptin (plasma)” value is 27.6 ± 2.9^a ng/ml and the “Reduction of food intake as compared to controls” value was 30%. Moreover, the “Time to reach the maximum (BJ) or normalising (Metformin) effect on glycemia” value (chronic treatment in drinking water) is on record as at most 4 days. Besides, the “Glycemia level (fed state)” value (during 4-week treatment) is given as 10 mM. Besides, the “Body weight loss as compared to controls” value (end of the 4-week treatment period) amounted to 4%.
